≈ marks a conversion by molar mass, not a printed value. Calls of active or inactive are those of the source. No cut-off for these calls is given here.
Each molecule was assayed against Urease subunit alpha/Urease subunit beta (Helicobacter pylori (strain ATCC 700392 / 26695) (Campylobacterpylori), UniProt P69996) (assay: Inhibition of Helicobacter pylori ATCC 43504 urease preincubated for 75 mins followed by urea addition and measured after 30 mins by ELISA). Conditions: not given.
Sequence of Urease subunit alpha/Urease subunit beta (P69996 whole entry): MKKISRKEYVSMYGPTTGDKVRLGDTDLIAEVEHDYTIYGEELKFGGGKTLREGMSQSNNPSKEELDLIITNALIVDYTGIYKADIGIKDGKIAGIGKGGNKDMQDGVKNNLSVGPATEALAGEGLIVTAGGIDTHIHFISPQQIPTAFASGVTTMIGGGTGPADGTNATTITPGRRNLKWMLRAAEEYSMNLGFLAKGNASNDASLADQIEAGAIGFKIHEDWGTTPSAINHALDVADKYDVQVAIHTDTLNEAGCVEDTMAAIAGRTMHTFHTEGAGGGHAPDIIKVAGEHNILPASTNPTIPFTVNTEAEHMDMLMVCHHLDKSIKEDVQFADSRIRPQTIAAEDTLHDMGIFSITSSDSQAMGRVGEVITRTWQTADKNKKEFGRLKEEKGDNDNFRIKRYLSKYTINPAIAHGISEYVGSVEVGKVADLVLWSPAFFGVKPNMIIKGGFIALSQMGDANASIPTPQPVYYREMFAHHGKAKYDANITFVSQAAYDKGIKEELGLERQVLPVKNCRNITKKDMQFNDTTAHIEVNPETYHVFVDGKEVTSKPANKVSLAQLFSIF
Sequence of Urease subunit alpha/Urease subunit beta (P14916 whole entry, further chain): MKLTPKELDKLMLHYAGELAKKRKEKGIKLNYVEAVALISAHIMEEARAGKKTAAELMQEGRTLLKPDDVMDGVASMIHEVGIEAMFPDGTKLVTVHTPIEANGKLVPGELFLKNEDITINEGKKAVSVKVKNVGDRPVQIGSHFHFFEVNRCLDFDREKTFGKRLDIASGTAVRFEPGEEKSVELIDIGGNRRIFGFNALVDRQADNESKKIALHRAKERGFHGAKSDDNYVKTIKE
Format: protein-complex assay
With `O=C(c1ccccc1F)n1[se]c2ccccc2c1=O` the IC50 was 870 nM.
`O=C(c1cc(F)c(F)cc1F)n1[se]c2ccccc2c1=O` showed an IC50 of 3290 nM.
For `O=C(c1cccc([N+](=O)[O-])c1)n1[se]c2ccccc2c1=O`, the IC50 was 1230 nM.
For `O=C(c1ccc(F)c(F)c1)n1[se]c2ccccc2c1=O`, the IC50 was 3360 nM.
Molecule `O=C(Oc1n[se]c2ccccc12)c1ccc(F)cc1F` has an IC50 of 360 nM.
`O=c1c2ccccc2[se]n1-c1cccc(OC(F)(F)F)c1` was tested, and the IC50 was 7230 nM.
Molecule `O=C(Oc1n[se]c2ccccc12)c1ccc(F)cc1` has an IC50 of 340 nM.
`O=C(c1cc(F)ccc1F)n1[se]c2ccccc2c1=O` was tested, and the IC50 was 2980 nM.
`O=C(c1cccc(F)c1)n1[se]c2ccccc2c1=O` was tested, and the IC50 was 440 nM.
For `O=C(c1ccc(C(F)(F)F)cc1)n1[se]c2ccccc2c1=O`, the IC50 was 3540 nM.
In the case of `O=c1c2ccccc2[se]n1-c1cc(F)ccc1Cl`, the IC50 is reported as 1340 nM.
`COC(=O)c1ccc(-n2[se]c3ccccc3c2=O)cc1` was tested, and the IC50 was 5230 nM.
With `O=C(c1ccc([N+](=O)[O-])cc1)n1[se]c2ccccc2c1=O` the IC50 was 1960 nM.
Work on `O=C(Oc1n[se]c2ccccc12)c1cccc(F)c1F` yielded an IC50 of 440 nM.
In the case of `O=c1c2ccccc2[se]n1-c1ccc(F)cc1`, the IC50 is reported as 2420 nM.
`O=C(Oc1n[se]c2ccccc12)c1cc(F)ccc1F` showed an IC50 of 860 nM.
In the case of `O=C(c1ccc(F)cc1F)n1[se]c2ccccc2c1=O`, the IC50 is reported as 1990 nM.
For `O=c1c2ccccc2[se]n1-c1c(F)cccc1Cl`, the IC50 was 1530 nM.
`O=C(c1cccc(Br)c1)n1[se]c2ccccc2c1=O` showed an IC50 of 820 nM.
`Cc1cccc(-n2[se]c3ccccc3c2=O)c1` showed an IC50 of 3190 nM.
Molecule `Cc1cccc(C(=O)n2[se]c3ccccc3c2=O)c1` has an IC50 of 5410 nM.
Work on `O=C(c1cccc(C(F)(F)F)c1)n1[se]c2ccccc2c1=O` yielded an IC50 of 1460 nM.
`O=C(c1ccccc1Br)n1[se]c2ccccc2c1=O` showed an IC50 of 1500 nM.
`O=C(c1ccc(F)c(F)c1F)n1[se]c2ccccc2c1=O` gave an IC50 of 3480 nM.
Work on `O=c1c2ccccc2[se]n1-c1ccc(C(F)(F)F)cc1F` yielded an IC50 of 5210 nM.
In the case of `COc1cccc(-n2[se]c3ccccc3c2=O)c1`, the IC50 is reported as 6660 nM.
`COc1ccc(C(=O)n2[se]c3ccccc3c2=O)cc1` gave an IC50 of 1730 nM.
`CC(C)(C)c1ccc(-n2[se]c3ccccc3c2=O)cc1` gave an IC50 of 15100 nM.
Work on `O=C(c1ccc(F)cc1)n1[se]c2ccccc2c1=O` yielded an IC50 of 890 nM.
For `O=C(Oc1n[se]c2ccccc12)c1c(F)cccc1F`, the IC50 was 1120 nM.
Molecule `O=C(Oc1n[se]c2ccccc12)c1ccccc1F` has an IC50 of 310 nM.
Work on `O=c1c2ccccc2[se]n1-c1ccccc1` [EBSELEN] yielded an IC50 of 1510 nM.
Molecule `COc1ccccc1C(=O)n1[se]c2ccccc2c1=O` has an IC50 of 1100 nM.
For `COc1ccc(-n2[se]c3ccccc3c2=O)cc1`, the IC50 was 7580 nM.
`O=c1c2ccccc2[se]n1-c1ccc(F)cc1Cl` gave an IC50 of 1560 nM.
`O=C(c1c(F)cccc1F)n1[se]c2ccccc2c1=O` was tested, and the IC50 was 3620 nM.
In the case of `O=C(c1ccccc1C(F)(F)F)n1[se]c2ccccc2c1=O`, the IC50 is reported as 3990 nM.
Work on `O=C(c1cccc(F)c1F)n1[se]c2ccccc2c1=O` yielded an IC50 of 1910 nM.
With `O=c1c2ccccc2[se]n1-c1cccc(Cl)c1` the IC50 was 2760 nM.
With `O=c1c2ccccc2[se]n1-c1ccc(OC(F)(F)F)cc1` the IC50 was 10600 nM.
Molecule `O=C(c1cccc(Cl)c1)n1[se]c2ccccc2c1=O` has an IC50 of 1310 nM.
For `O=c1c2ccccc2[se]n1-c1ccccc1Cl`, the IC50 was 1830 nM.
Work on `Cc1ccccc1C(=O)n1[se]c2ccccc2c1=O` yielded an IC50 of 3170 nM.
`O=C(Oc1n[se]c2ccccc12)c1ccc(F)c(F)c1F` gave an IC50 of 1100 nM.
`O=c1c2ccccc2[se]n1-c1ccc(F)c(F)c1` was tested, and the IC50 was 3550 nM.
With `Cc1ccc(-n2[se]c3ccccc3c2=O)cc1C(F)(F)F` the IC50 was 12100 nM.
With `COc1cccc(C(=O)n2[se]c3ccccc3c2=O)c1` the IC50 was 1980 nM.
In the case of `Cc1ccc(C(=O)n2[se]c3ccccc3c2=O)cc1`, the IC50 is reported as 3750 nM.
`COC(=O)c1cccc(-n2[se]c3ccccc3c2=O)c1` was tested, and the IC50 was 4660 nM.
Molecule `O=C(c1ccc(Br)cc1)n1[se]c2ccccc2c1=O` has an IC50 of 940 nM.
`N#Cc1cccc(-n2[se]c3ccccc3c2=O)c1` gave an IC50 of 1320 nM.
Molecule `O=C(c1ccc(Cl)cc1)n1[se]c2ccccc2c1=O` has an IC50 of 1930 nM.
In the case of `O=c1c2ccccc2[se]n1-c1ccc(Cl)cc1`, the IC50 is reported as 2520 nM.
`O=C(c1ccccc1Cl)n1[se]c2ccccc2c1=O` gave an IC50 of 1460 nM.
For `O=C(c1ccccc1[N+](=O)[O-])n1[se]c2ccccc2c1=O`, the IC50 was 2650 nM.

These molecules were tested on Helicobacter pylori (assay: Antibacterial activity against Helicobacter pylori ATCC 43504 incubated for 24 hrs by broth dilution method). Conditions: dose 1-64 […].
Format: functional
`O=c1c2ccccc2[se]n1-c1ccccc1` [EBSELEN] was tested, and the Activity was “Dose-dependent-effect” and the MIC was 32 µg/mL (≈ 117 µM).

Each molecule was assayed on Helicobacter pylori (assay: Antibacterial activity against Helicobacter pylori ATCC 43504 assessed as inhibition of bacterial colonies at 32 ug/mL incubated for 24 hrs by broth dilution method). Conditions: dose 32.0 µg/ml.
Format: functional, organism-based
With `O=c1c2ccccc2[se]n1-c1ccccc1` [EBSELEN] the Activity was “Active”.

Reference: ChEMBL document CHEMBL6103589, “Synthesis and evaluation of novel ebselen derivatives as urease inhibitors for combating Helicobacter pylori infections” (Eur J Med Chem, 2025)
